From ChEMBL document CHEMBL4602637, “Synthesis and biological evaluation of novel pyrazolo[1,5-a]pyrimidines: Discovery of a selective inhibitor of JAK1 JH2 pseudokinase and VPS34” (Bioorg Med Chem Lett, 2020)
pEC50, pKd: −log10 of the molar value. Activity calls are given as the source filed them. The calls are words filed in the database; no cut-off is given here.

Experiments:
[1] = system: A2780; experiment: Antimitotic activity against human A2780 cells at 10 uM by ATP lite luminescence assay; type: functional, cell-based
[2] = system: A2780; experiment: Antimitotic activity against human A2780 cells by ATP lite luminescence assay; type: functional, cell-based
[3] = target: T1, Tyrosine-protein kinase JAK1 (Homo sapiens, UniProt P23458); experiment: Inhibition of wild-type human partial length JAK1 JH2 pseudokinase domain (R537 to D855 residues) expressed in mammalian expression system assessed as enzyme residual activity at 10 uM by Kinomescan method relative to control
[4] = target: T2, Phosphatidylinositol 3-kinase catalytic subunit type 3 (Homo sapiens, UniProt Q8NEB9); experiment: Inhibition of wild-type human partial length PIK3C3 (S282 to H879 residues) expressed in mammalian expression system assessed as enzyme residual activity at 10 uM by Kinomescan method relative to control
[5] = target: T3, Ephrin type-B receptor 6 (Homo sapiens) (UniProt O15197); experiment: Inhibition of wild-type human partial length EPHB6 (Q634 to P948 residues) expressed in mammalian expression system assessed as enzyme residual activity at 10 uM by Kinomescan method relative to control
T3 sequence (whole entry): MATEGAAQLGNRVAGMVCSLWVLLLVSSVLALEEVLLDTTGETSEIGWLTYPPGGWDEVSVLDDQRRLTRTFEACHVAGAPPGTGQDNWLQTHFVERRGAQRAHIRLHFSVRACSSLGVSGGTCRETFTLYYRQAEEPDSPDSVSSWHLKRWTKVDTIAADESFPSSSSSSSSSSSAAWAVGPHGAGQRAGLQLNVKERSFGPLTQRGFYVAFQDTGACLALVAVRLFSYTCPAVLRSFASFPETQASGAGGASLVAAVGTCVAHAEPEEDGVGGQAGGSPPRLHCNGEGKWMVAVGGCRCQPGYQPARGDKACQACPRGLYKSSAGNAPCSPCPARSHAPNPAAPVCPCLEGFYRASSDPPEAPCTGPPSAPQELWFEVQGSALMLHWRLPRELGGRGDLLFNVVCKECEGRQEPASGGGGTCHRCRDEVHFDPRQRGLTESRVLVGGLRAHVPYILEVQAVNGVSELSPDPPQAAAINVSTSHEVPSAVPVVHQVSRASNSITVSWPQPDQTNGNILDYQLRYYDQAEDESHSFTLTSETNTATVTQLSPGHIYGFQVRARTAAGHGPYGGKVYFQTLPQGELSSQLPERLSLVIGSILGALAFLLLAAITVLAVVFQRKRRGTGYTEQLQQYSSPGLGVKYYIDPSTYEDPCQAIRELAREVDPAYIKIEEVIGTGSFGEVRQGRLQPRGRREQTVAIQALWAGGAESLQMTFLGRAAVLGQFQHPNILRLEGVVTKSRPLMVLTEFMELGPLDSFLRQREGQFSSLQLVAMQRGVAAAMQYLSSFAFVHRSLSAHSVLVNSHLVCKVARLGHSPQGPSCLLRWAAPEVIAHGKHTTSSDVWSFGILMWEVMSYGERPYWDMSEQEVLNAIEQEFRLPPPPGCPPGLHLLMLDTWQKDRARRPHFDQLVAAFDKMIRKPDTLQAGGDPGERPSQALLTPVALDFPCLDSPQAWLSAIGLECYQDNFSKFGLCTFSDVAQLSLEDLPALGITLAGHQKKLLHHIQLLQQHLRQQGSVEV

[6] = target: Non-receptor tyrosine-protein kinase TYK2 (Homo sapiens) (UniProt P29597); experiment: Inhibition of wild-type human partial length TYK2 JH2 pseudokinase domain (G556 to D888 residues) expressed in mammalian expression system assessed as enzyme residual activity at 10 uM by Kinomescan method relative to control
[7] = target: T4, Dual specificity mitogen-activated protein kinase kinase 5 (Homo sapiens) (UniProt Q13163); experiment: Inhibition of wild-type human partial length MEK5 (L98 to P448 residues) expressed in mammalian expression system assessed as enzyme residual activity at 10 uM by Kinomescan method relative to control
T4 sequence (whole entry): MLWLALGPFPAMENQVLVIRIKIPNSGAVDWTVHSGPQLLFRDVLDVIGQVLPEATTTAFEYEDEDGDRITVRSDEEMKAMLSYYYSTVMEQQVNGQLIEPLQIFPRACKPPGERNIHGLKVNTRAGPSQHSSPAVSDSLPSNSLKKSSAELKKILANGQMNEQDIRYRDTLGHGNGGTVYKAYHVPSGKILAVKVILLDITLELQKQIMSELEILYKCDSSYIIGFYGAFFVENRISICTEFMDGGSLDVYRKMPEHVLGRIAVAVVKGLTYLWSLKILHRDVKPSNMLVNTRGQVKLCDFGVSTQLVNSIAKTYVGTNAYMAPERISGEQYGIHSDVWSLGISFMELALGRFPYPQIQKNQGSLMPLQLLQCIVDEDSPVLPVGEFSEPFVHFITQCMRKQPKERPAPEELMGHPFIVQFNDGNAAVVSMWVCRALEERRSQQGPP

[8] = target: T1, Tyrosine-protein kinase JAK1; experiment: Binding affinity to wild-type human partial length JAK1 JH2 pseudokinase domain (R537 to D855 residues) expressed in mammalian expression system at 10 uM by Kinomescan method relative to control
[9] = target: T2, Phosphatidylinositol 3-kinase catalytic subunit type 3; experiment: Binding affinity to wild-type human partial length PIK3C3 (S282 to H879 residues) expressed in mammalian expression system at 10 uM by Kinomescan method relative to control
[10] = organism: Homo sapiens; experiment: Ratio for inhibition of wild-type human partial length TYK2 JH2 pseudokinase domain (G556 to D888 residues) expressed in mammalian expression system at 10 uM by Kinomescan method relative to control to inhibition of wild-type human partial length JAK1 JH2 pseudokinase domain (R537 to D855 residues) expressed in mammalian expression system at 10 uM by Kinomescan method relative to control
[11] = system: MCF7; experiment: Antimitotic activity against human MCF7 cells by ATP lite luminescence assay; type: functional, cell-based
[12] = system: A2780; experiment: Ratio of EC50 for dorsomorphin to EC50 for test compound for antimitotic activity against human A2780 cells by ATP lite luminescence assay; type: functional
[13] = system: MCF7; experiment: Ratio of EC50 for dorsomorphin to EC50 for test compound for antimitotic activity against human MCF7 cells by ATP lite luminescence assay; type: functional

T2 sequence (Q8NEB9 whole entry, the tested form may be a part): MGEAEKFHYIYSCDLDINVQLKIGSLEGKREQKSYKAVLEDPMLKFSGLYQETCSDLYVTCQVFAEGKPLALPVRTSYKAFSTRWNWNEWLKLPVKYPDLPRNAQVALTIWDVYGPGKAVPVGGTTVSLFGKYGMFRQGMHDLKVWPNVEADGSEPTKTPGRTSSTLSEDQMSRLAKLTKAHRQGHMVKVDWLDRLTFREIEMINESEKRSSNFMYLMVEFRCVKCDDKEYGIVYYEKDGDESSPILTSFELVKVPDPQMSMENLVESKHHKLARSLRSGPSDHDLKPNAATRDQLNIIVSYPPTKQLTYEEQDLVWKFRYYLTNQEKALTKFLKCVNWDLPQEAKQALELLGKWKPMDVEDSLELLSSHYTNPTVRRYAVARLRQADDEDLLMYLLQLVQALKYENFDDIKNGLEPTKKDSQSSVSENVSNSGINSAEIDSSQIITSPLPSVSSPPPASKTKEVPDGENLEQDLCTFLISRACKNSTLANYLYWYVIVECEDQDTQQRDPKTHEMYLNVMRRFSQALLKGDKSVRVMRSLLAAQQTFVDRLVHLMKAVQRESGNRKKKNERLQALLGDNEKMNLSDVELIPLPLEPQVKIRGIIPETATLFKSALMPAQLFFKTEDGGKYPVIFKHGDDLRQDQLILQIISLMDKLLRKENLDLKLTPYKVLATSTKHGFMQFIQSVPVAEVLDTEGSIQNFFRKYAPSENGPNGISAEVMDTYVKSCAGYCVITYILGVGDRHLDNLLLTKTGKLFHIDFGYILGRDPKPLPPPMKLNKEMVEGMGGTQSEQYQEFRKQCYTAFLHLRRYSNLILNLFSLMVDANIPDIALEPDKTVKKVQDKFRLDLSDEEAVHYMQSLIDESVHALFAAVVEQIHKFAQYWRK
T1 sequence (P23458 whole entry, the tested form may be a part): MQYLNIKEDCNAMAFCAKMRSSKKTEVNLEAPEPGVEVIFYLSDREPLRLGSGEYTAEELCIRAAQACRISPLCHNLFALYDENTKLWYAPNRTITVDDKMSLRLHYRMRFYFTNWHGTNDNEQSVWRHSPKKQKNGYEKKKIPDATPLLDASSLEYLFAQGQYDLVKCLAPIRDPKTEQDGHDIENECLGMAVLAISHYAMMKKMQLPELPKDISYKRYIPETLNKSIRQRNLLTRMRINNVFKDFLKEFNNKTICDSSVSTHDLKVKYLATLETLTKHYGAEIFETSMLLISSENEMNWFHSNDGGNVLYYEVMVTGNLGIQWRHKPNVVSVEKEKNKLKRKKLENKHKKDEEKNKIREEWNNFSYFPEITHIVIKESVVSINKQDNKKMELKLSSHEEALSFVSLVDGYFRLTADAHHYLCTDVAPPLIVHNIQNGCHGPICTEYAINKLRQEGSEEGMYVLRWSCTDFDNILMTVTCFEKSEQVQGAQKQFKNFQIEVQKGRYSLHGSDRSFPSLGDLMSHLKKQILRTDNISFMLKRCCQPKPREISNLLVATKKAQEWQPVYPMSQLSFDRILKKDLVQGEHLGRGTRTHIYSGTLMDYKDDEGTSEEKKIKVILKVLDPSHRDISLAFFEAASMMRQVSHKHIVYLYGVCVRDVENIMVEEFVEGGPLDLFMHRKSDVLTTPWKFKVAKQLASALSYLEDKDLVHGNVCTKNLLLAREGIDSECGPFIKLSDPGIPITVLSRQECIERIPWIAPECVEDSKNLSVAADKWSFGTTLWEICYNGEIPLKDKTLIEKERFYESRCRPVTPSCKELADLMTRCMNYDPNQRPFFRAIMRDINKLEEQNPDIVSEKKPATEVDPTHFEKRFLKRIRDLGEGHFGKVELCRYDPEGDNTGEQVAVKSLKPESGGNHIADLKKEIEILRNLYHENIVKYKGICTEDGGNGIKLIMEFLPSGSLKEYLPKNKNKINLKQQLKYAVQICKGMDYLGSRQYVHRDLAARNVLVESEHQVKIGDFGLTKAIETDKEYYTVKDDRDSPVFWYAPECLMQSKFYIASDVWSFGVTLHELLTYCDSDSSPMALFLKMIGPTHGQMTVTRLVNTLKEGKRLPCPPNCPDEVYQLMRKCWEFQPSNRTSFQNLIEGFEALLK
Non-receptor tyrosine-protein kinase TYK2 (Homo sapiens), sequence (P29597 whole entry, the tested form may be a part): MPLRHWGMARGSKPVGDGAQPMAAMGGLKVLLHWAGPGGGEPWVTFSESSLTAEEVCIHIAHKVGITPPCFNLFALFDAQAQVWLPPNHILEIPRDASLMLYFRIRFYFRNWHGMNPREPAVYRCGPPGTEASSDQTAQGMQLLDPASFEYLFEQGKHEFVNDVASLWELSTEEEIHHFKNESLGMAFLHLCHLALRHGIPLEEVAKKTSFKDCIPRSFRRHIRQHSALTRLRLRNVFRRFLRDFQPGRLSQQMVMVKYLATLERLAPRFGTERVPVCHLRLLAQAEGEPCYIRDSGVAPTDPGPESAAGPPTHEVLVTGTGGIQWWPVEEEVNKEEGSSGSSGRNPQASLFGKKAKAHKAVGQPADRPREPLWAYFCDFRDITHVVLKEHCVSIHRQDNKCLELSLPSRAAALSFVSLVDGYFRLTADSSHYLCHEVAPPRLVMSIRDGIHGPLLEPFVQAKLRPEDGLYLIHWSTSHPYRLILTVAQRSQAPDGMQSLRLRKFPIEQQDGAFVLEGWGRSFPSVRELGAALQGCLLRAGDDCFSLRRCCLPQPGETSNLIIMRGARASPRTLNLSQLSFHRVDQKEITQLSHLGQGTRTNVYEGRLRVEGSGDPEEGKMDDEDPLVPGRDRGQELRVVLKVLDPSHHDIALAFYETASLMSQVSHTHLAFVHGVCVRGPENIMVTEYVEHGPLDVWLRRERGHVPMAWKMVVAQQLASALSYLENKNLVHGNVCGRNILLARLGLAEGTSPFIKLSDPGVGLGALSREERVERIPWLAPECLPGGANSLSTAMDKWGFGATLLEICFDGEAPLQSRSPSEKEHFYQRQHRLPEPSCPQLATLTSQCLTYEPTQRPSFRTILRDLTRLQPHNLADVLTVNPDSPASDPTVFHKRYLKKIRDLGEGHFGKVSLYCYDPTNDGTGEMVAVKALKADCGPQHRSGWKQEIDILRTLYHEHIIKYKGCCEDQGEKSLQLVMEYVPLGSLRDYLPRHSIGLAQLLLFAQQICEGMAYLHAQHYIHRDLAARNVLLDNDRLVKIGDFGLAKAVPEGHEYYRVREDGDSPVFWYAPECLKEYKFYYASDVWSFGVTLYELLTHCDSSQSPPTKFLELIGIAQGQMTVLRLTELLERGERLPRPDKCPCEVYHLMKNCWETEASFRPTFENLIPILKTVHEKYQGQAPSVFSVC

For `c1ccc2sc(-c3cnn4cccnc34)nc2c1`, the Activity [1] was “Active”, the pEC50 [2] was 6.05 and the Activity [3] was 0.8%. The Activity [4] was 0.9%, the Activity [5] was 9.9% and the Activity [6] was 5%. The Activity [7] was 3.9%, the pKd [8] was 6.26 and the pKd [9] was 6.39. For the same compound, the Ratio [10] was 6.
Compound `c1cc(-c2cnn3cc(-c4ccc(OCCN5CCCCC5)cc4)cnc23)ccn1` [DORSOMORPHIN] has a pEC50 [2] of 5.96 to 6.05 and a pEC50 [11] of 5.31.
With `CN1CCN(CCOc2ccc(-c3cnc4c(-c5ccc(F)cc5)cnn4c3)cc2)CC1` the Activity [1] was “Active” and the pEC50 [2] was 5.96.
With `Fc1ccc(-c2cnn3cc(-c4ccc(OCCN5CCCCC5)cc4)cnc23)cc1` the Activity [1] was “Active”, the pEC50 [2] was 6.03 and the pEC50 [11] was 5.44.
For `Fc1cccc(-c2cnn3cc(-c4ccc(OCCN5CCCCC5)cc4)cnc23)c1`, the Activity [1] was “Active”, the pEC50 [2] was 5.92 and the pEC50 [11] was 5.66. The Activity [3] was 41%, the Activity [4] was 100% and the Activity [5] was less than 10%. The Activity [6] was less than 10%.
With `CN1CCN(CCOc2ccc(-c3cnc4c(-c5cccc(F)c5)cnn4c3)cc2)CC1` the Activity [1] was “Active” and the pEC50 [2] was 6.02.
For `CN1CCN(CCOc2ccc(-c3cnc4c(-c5cccc(F)c5F)cnn4c3)cc2)CC1`, the Activity [1] was “Active” and the pEC50 [2] was 6.08.
For `Fc1ccccc1-c1cnn2cc(-c3ccc(OCCN4CCCCC4)cc3)cnc12`, the Activity [1] was “Active”, the pEC50 [2] was 5.57 and the pEC50 [11] was 5.55.
`CN1CCN(CCOc2ccc(-c3cnc4c(-c5ccc(C(F)(F)F)cc5)cnn4c3)cc2)CC1` was tested, and the Activity [1] was “Active” and the pEC50 [2] was 5.54.
With `CN1CCN(CCOc2ccc(-c3cnc4c(-c5ccccc5F)cnn4c3)cc2)CC1` the Activity [1] was “Active”, the pEC50 [2] was 6.28 and the “Ratio EC50” value [12] was 2. For the same compound, the “Ratio EC50” value [13] was 3.
`Fc1cccc(-c2cnn3cc(-c4ccc(OCCN5CCCCC5)cc4)cnc23)c1F` was tested, and the Activity [1] was “Active”, the pEC50 [2] was 5.85 and the pEC50 [11] was 5.37.
In the case of `FC(F)(F)c1ccc(-c2cnn3cc(-c4ccc(OCCN5CCCCC5)cc4)cnc23)cc1`, the Activity [1] was “Active”, the pEC50 [2] was 5.64 and the pEC50 [11] was 5.80.
